From ChEMBL document CHEMBL4402605, “A Chemical Switch for Transforming a Purine Agonist for Toll-like Receptor 7 to a Clinically Relevant Antagonist” (J Med Chem, 2020)
Activity calls are given as the source filed them. The calls are words filed in the database; no cut-off is given here.

Key:
Toll-like receptor 7 [1] = molecular target: T1, Toll-like receptor 7 (Homo sapiens, UniProt Q9NYK1); test: Agonist activity at human TLR7 expressed in HEK-Blue cells assessed as induction of NFkappaB activation by measuring increase in SEAP level after overnight incubation using qunati-blue reagent by SEAP reporter gene-based spectrophotometric method; format: cell-based
T1 sequence (Q9NYK1 whole entry): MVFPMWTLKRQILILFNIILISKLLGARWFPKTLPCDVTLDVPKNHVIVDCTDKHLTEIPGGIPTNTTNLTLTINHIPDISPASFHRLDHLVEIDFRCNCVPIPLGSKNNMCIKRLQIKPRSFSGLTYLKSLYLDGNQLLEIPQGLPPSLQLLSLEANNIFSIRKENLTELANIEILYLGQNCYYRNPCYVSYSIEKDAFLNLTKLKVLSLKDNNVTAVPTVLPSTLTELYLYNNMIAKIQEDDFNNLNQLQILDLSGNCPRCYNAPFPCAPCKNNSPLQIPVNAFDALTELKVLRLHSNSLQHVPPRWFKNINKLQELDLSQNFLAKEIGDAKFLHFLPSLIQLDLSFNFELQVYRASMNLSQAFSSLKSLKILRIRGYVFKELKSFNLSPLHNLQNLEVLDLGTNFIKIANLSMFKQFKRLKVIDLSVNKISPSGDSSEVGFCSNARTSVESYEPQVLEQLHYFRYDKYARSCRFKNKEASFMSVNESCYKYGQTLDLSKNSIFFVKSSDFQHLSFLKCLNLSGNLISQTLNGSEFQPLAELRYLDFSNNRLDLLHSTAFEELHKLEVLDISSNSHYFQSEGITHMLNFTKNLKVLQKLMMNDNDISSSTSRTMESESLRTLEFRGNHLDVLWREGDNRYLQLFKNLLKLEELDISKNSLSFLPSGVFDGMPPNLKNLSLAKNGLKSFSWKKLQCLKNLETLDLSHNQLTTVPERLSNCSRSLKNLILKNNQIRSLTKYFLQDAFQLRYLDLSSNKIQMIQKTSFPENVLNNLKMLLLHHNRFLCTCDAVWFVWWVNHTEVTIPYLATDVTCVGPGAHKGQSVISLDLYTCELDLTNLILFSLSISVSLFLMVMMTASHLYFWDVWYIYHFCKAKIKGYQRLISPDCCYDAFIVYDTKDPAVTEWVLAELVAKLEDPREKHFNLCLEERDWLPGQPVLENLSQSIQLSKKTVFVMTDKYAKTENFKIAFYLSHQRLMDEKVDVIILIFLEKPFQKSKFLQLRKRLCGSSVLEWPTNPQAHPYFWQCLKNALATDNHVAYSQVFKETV

Toll-like receptor 7 [2] = molecular target: T1, Toll-like receptor 7
Description: Antagonist activity at human TLR7 expressed in HEK-Blue cells assessed as inhibition of CL264-induced NFkappaB activation by measuring reduction in SEAP level after overnight incubation using qunati-blue reagent by SEAP reporter gene-based spectrophotometric method

[3] = molecular target: T2, Toll-like receptor 8 (Homo sapiens) (UniProt Q9NR97); test: Antagonist activity at human TLR8 expressed in HEK-Blue cells assessed as inhibition of CL075-induced NFkappaB activation by measuring reduction in SEAP level up to 50 uM after overnight incubation using qunati-blue reagent by SEAP reporter gene-based spectrophotometric method; format: cell-based
T2 sequence (whole entry): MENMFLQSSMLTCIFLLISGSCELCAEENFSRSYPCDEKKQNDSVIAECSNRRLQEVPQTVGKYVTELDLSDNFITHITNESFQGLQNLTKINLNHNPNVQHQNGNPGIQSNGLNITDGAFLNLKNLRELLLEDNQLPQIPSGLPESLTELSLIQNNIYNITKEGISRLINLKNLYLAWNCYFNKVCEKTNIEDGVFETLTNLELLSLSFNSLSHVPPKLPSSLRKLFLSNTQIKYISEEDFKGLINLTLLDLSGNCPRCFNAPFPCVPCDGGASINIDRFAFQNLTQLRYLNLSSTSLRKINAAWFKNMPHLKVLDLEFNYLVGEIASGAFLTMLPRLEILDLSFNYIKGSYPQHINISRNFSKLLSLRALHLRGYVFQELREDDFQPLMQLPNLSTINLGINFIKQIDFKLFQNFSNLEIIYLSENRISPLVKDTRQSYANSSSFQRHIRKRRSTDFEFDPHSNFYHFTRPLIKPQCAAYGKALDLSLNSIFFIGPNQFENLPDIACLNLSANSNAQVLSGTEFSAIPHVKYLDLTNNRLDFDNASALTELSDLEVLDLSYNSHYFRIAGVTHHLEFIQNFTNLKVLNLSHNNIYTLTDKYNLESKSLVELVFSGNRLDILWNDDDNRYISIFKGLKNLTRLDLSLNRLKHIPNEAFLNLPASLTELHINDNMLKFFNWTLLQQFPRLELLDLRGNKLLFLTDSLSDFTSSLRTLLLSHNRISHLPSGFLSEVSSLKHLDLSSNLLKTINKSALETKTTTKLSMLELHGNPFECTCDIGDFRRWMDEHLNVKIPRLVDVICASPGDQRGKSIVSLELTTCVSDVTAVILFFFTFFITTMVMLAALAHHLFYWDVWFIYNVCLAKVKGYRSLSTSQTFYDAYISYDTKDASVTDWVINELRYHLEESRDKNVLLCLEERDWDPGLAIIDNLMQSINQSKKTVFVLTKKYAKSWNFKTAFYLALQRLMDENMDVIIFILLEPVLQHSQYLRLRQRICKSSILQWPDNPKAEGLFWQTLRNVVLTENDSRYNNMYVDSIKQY

Row | Compound | EC50 (Toll-like receptor 7 [1]) [nM] | IC50 (Toll-like receptor 7 [2]) [µM] | inhibition [3]
1 | CCCCOc1nc(N)c2nc(O)n(CCCN3CCCCC3)c2n1 | 2600 | – | –
2 | CCN1CCN(CCCn2cnc3c(N4CCCCC4)ncnc32)CC1 | – | 23.9 | inactive
3 | CCN1CCN(c2ncnc3c2ncn3CCCN2CCCCC2)CC1 | – | 15.8 | inactive
4 | CCN1CCN(c2ncnc3c2ncn3CCCN2CCNCC2)CC1 | – | – | inactive
5 | CCN1CCN(CCCn2c(O)nc3c(N)ncnc32)CC1 | – | 43.1 | inactive

The next lines start with the values.

Row | EC50 (Toll-like receptor 7 [1]) [nM] | IC50 (Toll-like receptor 7 [2]) [µM] | inhibition [3] | Compound
6 | – | 39.3 | inactive | CCN1CCN(CCCn2cnc3c(N4CCNCC4)ncnc32)CC1
7 | – | 8.6 | – | CCN(CCO)CCCC(C)Nc1ccnc2cc(Cl)ccc12 (configuration not stated) [HYDROXYCHLOROQUINE]
8 | – | 25 | inactive | CCN1CCN(CCCn2cnc3c(N4CCOCC4)ncnc32)CC1
9 | – | 48.3 | inactive | CCN1CCN(c2ncnc3c2ncn3CCCN2CCCC2)CC1
10 | – | 40 | inactive | CCN1CCN(c2ncnc3c2ncn3CCCN2CCOCC2)CC1
